Measurements: ChEMBL document CHEMBL1201862, “PubChem BioAssay data set” (2004)
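Results reflect a 48-hour exposure of cells in 96-well plates to compound at five concentrations. GI50 = concentration required for 50% inhibition of growth.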 Calls of active or inactive are those of the source. Cut-off read from the data, not from the text of the source: active = GI50 up to about 1.1 µM and inactive = higher.

What was measured:
Assay in all cases: growth of human tumour cells (NCI), 48 h
DMS-114 = test system: DMS-114
DLD-1 = test system: DLD-1
HOP-18 = test system: HOP-18
SNB-78 = test system: SNB-78
LXFL 529 = test system: LXFL 529
KM-20L2 = test system: KM-20L2
XF498 = test system: XF498
DMS-273 = test system: DMS-273
RXF 631 = test system: RXF 631

| SMILES | GI50 (DMS-114) | GI50 (DLD-1) | GI50 (HOP-18) | GI50 (SNB-78) | GI50 (LXFL 529) | GI50 (KM-20L2) | GI50 (XF498) | GI50 (DMS-273) | GI50 (RXF 631) |
| --- | --- | --- | --- | --- | --- | --- | --- | --- | --- |
| CCc1cccc(C)c1NC(=O)CCc1nnc(S)[nH]1 | > 100 µM (inactive) | > 100 µM (inactive) | > 100 µM (inactive) | > 100 µM (inactive) | > 100 µM (inactive) | > 100 µM (inactive) | > 100 µM (inactive) |  |  |
| COC(=O)C[C@](O)(CCCC(C)(C)O)C(=O)O[C@@H]1C(OC)=C[C@]23CCCN2CCc2cc4c(cc2[C@H]13)OCO4 [OMACETAXINE MEPESUCCINATE] | 0.0047 µM (active) | 0.0231 µM (active) | 0.06 µM (active) | 0.0682 µM (active) |  | 0.0192 µM (active) | 0.00914 µM (active) | 0.00679 µM (active) |  |
| C/C=C1\C=C(OC)CN(CCc2c[nH]c3ccccc23)C1 | 43.4 µM (inactive) | > 100 µM (inactive) | > 10 µM (inactive) |  | 9.4 µM (inactive) | 37.6 µM (inactive) | 32.9 µM (inactive) | 49.7 µM (inactive) |  |
| COc1cccc(NC(=S)Nn2c(C)nc3ccccc3c2=O)c1 | > 100 µM (inactive) | > 100 µM (inactive) | 83.6 µM (inactive) |  | > 100 µM (inactive) |  |  | > 100 µM (inactive) |  |
| O=C1C(Br)=CC2(C=C1Br)CCNC1=C2C2=NCCc3c[nH]c(c32)C1=O | 0.0401 µM (active) | 0.0182 µM (active) | 1.98 µM (inactive) | 0.2 µM (active) |  | 0.084 µM (active) | 0.188 µM (active) | 0.158 µM (active) |  |
| O=C(c1ccc(F)cc1)c1cccc(C(=O)c2ccc(F)cc2)n1 | 23.9 µM (inactive) | > 100 µM (inactive) | 53.2 µM (inactive) | 17.7 µM (inactive) | > 79.1 µM (inactive) | > 100 µM (inactive) | 20.9 µM (inactive) | 26.3 µM (inactive) |  |
| NC(=O)N/N=C(\Cc1nc2ccc(C(=O)c3ccccc3)cc2nc1O)C(=O)Nc1ccc(Br)cc1 | > 100 µM (inactive) | > 100 µM (inactive) | > 100 µM (inactive) | > 100 µM (inactive) | > 100 µM (inactive) | > 100 µM (inactive) | > 100 µM (inactive) | > 100 µM (inactive) |  |
| O=C(Nc1ccc([N+](=O)[O-])cc1)C1C(=O)C(=O)N(c2ccc([N+](=O)[O-])cc2)C1=O (stereo not drawn) | 17.1 µM (inactive) | > 100 µM (inactive) | > 100 µM (inactive) | > 100 µM (inactive) | 17.7 µM (inactive) | 97.3 µM (inactive) |  | 11.6 µM (inactive) | > 100 µM (inactive) |
| CCN(CC)CCNC(=O)c1cccc2cc3ccccc3nc12 | 5.89 µM (inactive) | 3.57 µM (inactive) | 15.8 µM (inactive) | 7.69 µM (inactive) |  |  |  | 3.95 µM (inactive) | 4.6 µM (inactive) |
| Cc1ccc(C(=O)N2CCCCC2)cc1/N=N/N(C)C | > 100 µM (inactive) | > 100 µM (inactive) |  |  | > 100 µM (inactive) |  |  | > 100 µM (inactive) |  |
| O=C(O)c1c[nH]cc1C(=O)O | > 100 µM (inactive) | > 100 µM (inactive) |  | > 100 µM (inactive) | > 100 µM (inactive) | > 100 µM (inactive) | > 100 µM (inactive) | > 100 µM (inactive) |  |
| Cc1c(-c2coc(-c3ccccc3)n2)c(=O)n(-c2ccccc2)n1C | 36.6 µM (inactive) | > 100 µM (inactive) |  | > 100 µM (inactive) | 58.1 µM (inactive) | > 100 µM (inactive) | 23 µM (inactive) | > 100 µM (inactive) |  |
| Cc1nc(-n2nc(-c3ccccc3)cc2-c2ccccc2)sc1C(=O)/C=C/c1ccccc1 |  | > 100 µM (inactive) | > 100 µM (inactive) | > 100 µM (inactive) |  | > 100 µM (inactive) |  | > 100 µM (inactive) | > 100 µM (inactive) |
| CC(C)c1cccc(C(C)C)c1NC(=O)C(=O)C(C(=O)c1ccccc1-c1ccccc1)C1OC(=O)c2ccccc21 (stereo not drawn) | 17.7 µM (inactive) |  |  | 21.9 µM (inactive) | 17.7 µM (inactive) | 21.5 µM (inactive) | 13.3 µM (inactive) | 22.9 µM (inactive) |  |
